Measured values published in patent US10869931B2, “Polyethylene glycol-modified angiogenesis inhibitor HM-1 and application thereof” (NANJING ANJI BIOLOGICAL TECHNOLOGY CO.,LTD, priority 2016, dated 2020).
Marks after values point to notes of the source that are not given here. Where no end group is shown, it is not given here.

Assays:
[1] = system: Head and neck cancer tumor cells; test: MTT proliferation inhibition, head and neck cancer cells; assay type: cell-based, human; parameters: concentration or dose not given beside the values; settings: 48 h
Method in brief: (§1)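 Tumour cells plated at 2×10^4 cells/mL, attached overnight, then exposed to dilutions of mPEG-HM-1 for 48 h at 37 °C, 5% CO2. MTT added 4 h, formazan dissolved in DMSO, absorbance 570/630 nm; growth inhibition = 1 − treated/untreated, three independent repeats, mean±SD.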

Brain tumor cells = test: MTT proliferation inhibition, brain tumor cells; assay type: cell-based, human; parameters: concentration or dose not given beside the values; settings: 48 h
Method in brief: as §1

[2] = system: Thyroid cancer tumor cells; test: MTT proliferation inhibition, thyroid cancer cells; assay type: cell-based, human; parameters: concentration or dose not given beside the values; settings: 48 h
Method in brief: as §1

Lung cancer tumor cells = test: MTT proliferation inhibition, lung cancer cells; assay type: cell-based, human; parameters: concentration or dose not given beside the values; settings: 48 h
Method in brief: as §1

[3] = system: Cervical cancer tumor cells; test: MTT proliferation inhibition, cervical cancer cells; assay type: cell-based, human; parameters: concentration or dose not given beside the values; settings: 48 h
Method in brief: as §1

[4] = system: Uterine cancer tumor cells; test: MTT proliferation inhibition, uterine cancer cells; assay type: cell-based, human; parameters: concentration or dose not given beside the values; settings: 48 h
Method in brief: as §1

[5] = system: Prostate cancer tumor cells; test: MTT proliferation inhibition, prostate cancer cells; assay type: cell-based, human; parameters: concentration or dose not given beside the values; settings: 48 h
Method in brief: as §1

mouse spleen lymphocytes = test: ConA-stimulated mouse spleen lymphocyte proliferation (MTT); assay type: cell-based; settings: ConA 5 μg/mL, 48 h
Method in brief: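 Spleen cells, red cells lysed with Tris-NH4Cl, plated at 5×10^6/mL in RPMI 1640 with 10% calf serum alongside blank, ConA and Dex (0.02 mg/mL) groups. After 48 h at 37° C., MTT added for 4 h, formazan dissolved in DMSO, OD read at 570 nm, 5 replicates.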

[6] = system: IL-1β production by mouse peritoneal macrophages; test: IL-1β production by mouse peritoneal macrophages (ELISA); assay type: cell-based; settings: 48 h
Method in brief: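 Starch-elicited mouse peritoneal macrophages (2×10^6 cells/mL), adhered 3 h, treated with low, medium and high concentrations of mPEG-HM-1 for 48 h; dexamethasone as positive control. Supernatant IL-1β quantified by sandwich ELISA at OD450.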

[7] = system: xylene-induced ear swelling in Kunming mice; test: Xylene-induced ear swelling in mice; assay type: in vivo, mouse; settings: for Inhibition rate: ear swelling vs control
Method in brief: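 Kunming mice were dosed once daily for 5 days (aspirin 200 mg/kg as positive control, saline as blank). One hour after the last dose, xylene was applied to the right ear, with the left ear as untreated reference. Ear punches were weighed 2 h later; swelling degree = right − left weight, rate = degree/left weight ×100%.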

[8] = in vivo
[9] = 10 mg/kg once daily for 5 days, 2 h after xylene
[10] = 20 mg/kg once daily for 5 days, 2 h after xylene
[11] = 40 mg/kg once daily for 5 days, 2 h after xylene
[12] = 5 mg/kg once daily for 5 days, right minus left ear piece weight 2 h after xylene

Row | Substance | rate of growth inhibition [1] [%] | rate of growth inhibition (Brain tumor cells) [%] | rate of growth inhibition [2] [%] | rate of growth inhibition (Lung cancer tumor cells) [%] | rate of growth inhibition [3] [%] | rate of growth inhibition [4] [%] | rate of growth inhibition [5] [%] | A570 nm/A630 nm (mouse spleen lymphocytes; 10 μg/mL) | Inhibition Rate of spleen lymphocyte proliferation (mouse spleen lymphocytes; 10 μg/mL) [%] | A570 nm/A630 nm (mouse spleen lymphocytes; 20 μg/mL) | Inhibition Rate of spleen lymphocyte proliferation (mouse spleen lymphocytes; 20 μg/mL) [%] | IL-1β ([6]; 10 μg/mL) [pg/mL] | Inhibition Rate of IL-1β production ([6]; 10 μg/mL) [%] | IL-1β ([6]; 20 μg/mL) [pg/mL] | Inhibition Rate of IL-1β production ([6]; 20 μg/mL) [%] | Swelling [7, 9] | Inhibition rate ([7]; 10 mg/kg once daily for 5 days) [%] | Swelling [7, 10] | Inhibition rate ([7]; 20 mg/kg once daily for 5 days) [%] | AUC0-∞ [8] [mg/L/h] | other results
1 | mPEG-bALD10k-Arg-Gly-Ala-Asp-Arg-Ala-Gly-Gly-Gly-Gly-Arg-Gly-Asp ({mPEG‑bALD 10 kDa}-RGADRAGGGGRGD) [mPEG-bALD10k-HM-1] | 49.01 ± 12.14 | 59.37 ± 14.52 | 55.74 ± 13.13 | 66.72 ± 14.42 | 80.08 ± 18.34 | 79.79 ± 20.45 | 50.02 ± 10.65 | 0.6179 ± 0.1049 | 10.94 | 0.5469 ± 0.1122 | 21.18 | 720.77 ± 16.65 | 21.84 | 633.90 ± 14.73 | 31.26 | 5.37 ± 0.14 mg | 11.54 | 4.64 ± 0.72* mg | 23.63 | 5108.42 ± 9.98 | A570 nm/A630 nm (mouse spleen lymphocytes; 40 μg/mL): 0.4666 ± 0.1040; Inhibition Rate of spleen lymphocyte proliferation (mouse spleen lymphocytes; 40 μg/mL): 32.75%; IL-1β ([6]; 40 μg/mL): 460.53 ± 10.42 pg/mL; Swelling [7, 11]: 3.59 ± 0.35** mg; Inhibition rate ([7]; 40 mg/kg once daily for 5 days): 40.88%; CL [8]: 0.0250 ± 0.0105 L/h/kg; MRT0-∞ [8]: 11.97 ± 8.86 h; T1/2β (half-life) [8]: 16.83 ± 0.13 h
2 | mPEG-ALD10k-Arg-Gly-Ala-Asp-Arg-Ala-Gly-Gly-Gly-Gly-Arg-Gly-Asp ({mPEG‑ALD 10 kDa}-RGADRAGGGGRGD) [mPEG-ALD10k-HM-1] | 48.93 ± 12.14 | 58.25 ± 14.02 | 55.30 ± 13.10 | 65.73 ± 16.20 | 83.04 ± 18.74 | 90.79 ± 22.19 | 51.09 ± 11.78 | 0.6116 ± 0.1046 | 10.96 | 0.5352 ± 0.1022 | 22.08 | 724.09 ± 16.59 | 21.03 | 620.94 ± 18.43 | 32.28 | 5.36 ± 0.12 mg | 12.36 | 4.67 ± 0.79* mg | 23.67 | 5067.98 ± 9.79 | A570 nm/A630 nm (mouse spleen lymphocytes; 40 μg/mL): 0.4651 ± 0.1086; Inhibition Rate of spleen lymphocyte proliferation (mouse spleen lymphocytes; 40 μg/mL): 32.29%; IL-1β ([6]; 40 μg/mL): 455.16 ± 10.95 pg/mL; Swelling [7, 11]: 3.58 ± 0.33** mg; Inhibition rate ([7]; 40 mg/kg once daily for 5 days): 41.58%; CL [8]: 0.0255 ± 0.0073 L/h/kg; MRT0-∞ [8]: 11.05 ± 7.68 h; T1/2β (half-life) [8]: 16.46 ± 0.10 h
3 | mPEG-bALD5k-Arg-Gly-Ala-Asp-Arg-Ala-Gly-Gly-Gly-Gly-Arg-Gly-Asp ({mPEG‑bALD 5 kDa}-RGADRAGGGGRGD) [mPEG-bALD5k-HM-1] | 39.92 ± 11.33 | 45.11 ± 12.09 | 42.19 ± 10.35 | 47.56 ± 12.22 | 64.52 ± 16.88 | 65.46 ± 18.52 | 39.27 ± 12.50 | 0.5645 ± 0.1114 | 18.64 | 0.4957 ± 0.1286 | 28.56 | 659.63 ± 16.52 | 28.47 | 533.11 ± 10.87 | 42.19 | 4.83 ± 0.30* mg | 20.47 | 4.18 ± 0.25** mg | 31.08 | 4782.29 ± 11.37 | A570 nm/A630 nm (mouse spleen lymphocytes; 5 μg/mL): 0.6257 ± 0.1022; Inhibition Rate of spleen lymphocyte proliferation (mouse spleen lymphocytes; 5 μg/mL): 9.82%; IL-1β ([6]; 5 μg/mL): 729.25 ± 18.34 pg/mL; Inhibition Rate of IL-1β production ([6]; 5 μg/mL): 20.92%; Inhibition rate ([7]; 5 mg/kg once daily for 5 days): 10.36%; Swelling [7, 12]: 5.44 ± 0.19 mg; CL [8]: 0.0498 ± 0.0097 L/h/kg; MRT0-∞ [8]: 8.46 ± 6.95 h; T1/2β (half-life) [8]: 9.35 ± 0.12 h
4 | mPEG-ALD5k-Arg-Gly-Ala-Asp-Arg-Ala-Gly-Gly-Gly-Gly-Arg-Gly-Asp ({mPEG‑ALD 5 kDa}-RGADRAGGGGRGD) [mPEG-ALD5k-HM-1] | 40.71 ± 11.33 | 42.15 ± 12.89 | 40.23 ± 10.05 | 45.76 ± 13.20 | 61.12 ± 18.39 | 65.99 ± 17.72 | 38.47 ± 11.52 | 0.5448 ± 0.1072 | 20.68 | 0.4779 ± 0.1178 | 30.42 | 654.50 ± 18.43 | 28.62 | 516.13 ± 10.95 | 43.71 | 4.80 ± 0.35* mg | 21.52 | 4.16 ± 0.14** mg | 32.10 | 4986.29 ± 10.16 | A570 nm/A630 nm (mouse spleen lymphocytes; 5 μg/mL): 0.6241 ± 0.0917; Inhibition Rate of spleen lymphocyte proliferation (mouse spleen lymphocytes; 5 μg/mL): 9.14%; IL-1β ([6]; 5 μg/mL): 734.73 ± 16.59 pg/mL; Inhibition Rate of IL-1β production ([6]; 5 μg/mL): 19.87%; Inhibition rate ([7]; 5 mg/kg once daily for 5 days): 10.17%; Swelling [7, 12]: 5.50 ± 0.21 mg; CL [8]: 0.0506 ± 0.0094 L/h/kg; MRT0-∞ [8]: 8.15 ± 4.21 h; T1/2β (half-life) [8]: 9.13 ± 0.11 h
